We go through 24 compounds from patent US20170121344A1 (Siga Technologies, Inc., priority 2009, published 2017).

Where two headings read alike, the source gives them in different places.

For one assay, the system named is DENV-1. The assay is described as follows: Viral yield assay against DENV-1 in Vero cells. Particulars: Dengue virus, DENV1, viral yield assay. Type of assay: cell-based. The method, boiled down: (§1)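 Infect Vero cells with virus (MOI 0.1), add compound or DMSO, incubate at 37° C, collect progeny at 48 hours post infection, then titrate on Vero cells to obtain EC50.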

The next assay concerns DENV-4. The assay is described as follows: Viral yield assay against DENV-4 in Vero cells. Type of assay: cell-based. Particulars: Dengue virus, DENV4, viral yield assay. The gist of the method: as §1
A further assay has as its system DENV-3. Nature of the assay: Viral yield assay against DENV-3 in Vero cells. As to conditions: Dengue virus, DENV3, viral yield assay. Format: cell-based. The gist of the method: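 Progeny virus from compound-treated Vero monolayers infected at an MOI of 0.1 is collected after 48 h at 37° C and titered on Vero cells. DMSO serves as control.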
The subject of assay [1] is Dengue-2 (Strain New Guinea C). The assay is described as follows: Viral yield assay against Dengue-2 in Vero cells. Format: cell-based, Dengue virus. As to conditions: Dengue virus, read-out: Activity (EC50 in μM) DENV-2. The gist of the method:
as §1

The mark [2] stands for this setting: DENV2, viral yield assay, Vero cells, MOI 0.1, 48 hours post infection.

Regarding `COc1cccc(-c2ccc3c(N)c(C(=O)Nc4ccc(OC)cc4C)sc3n2)c1` [Compound 507, 3-amino-N-(4-methoxy-2-methyl-phenyl)-6-(3-methoxyphenyl)thieno[2,3-b] pyridine-2-carboxamide], the EC50 (in the assay on DENV-1; in the assay on DENV-4; with DENV-3; in assay [1] (setting [2])) was under 5 µM throughout.
In the case of `COc1cccc(-c2ccc3c(N)c(C(=O)Nc4ccc(F)cc4)sc3n2)c1` [Compound 510, 3-amino-N-(4-fluorophenyl)-6-(3-methoxyphenyl)thieno[2,3-b]pyridine-2-carboxamide], the EC50 is under 5 µM in the assay with DENV-1; under 5 µM in the assay on DENV-4; under 5 µM in the assay with DENV-3; under 5 µM in assay [1] (DENV2, Vero, 48 h).
On to `COc1cccc(-c2ccc3c(N)c(C(=O)Nc4ccc(OC)cc4OC)sc3n2)c1` [Compound 512, 3-amino-N-(2,4-dimethoxyphenyl)-6-(3-methoxyphenyl)thieno[2,3-b]pyridine-2-carboxamide], for which the EC50 (in the assay with DENV-1; with DENV-4; with DENV-3; in assay [1] (setting [2])) was under 5 µM in each case.
For the compound `Cc1ccc(NC(=O)c2sc3nc(-c4ccc5c(c4)OCO5)ccc3c2N)c(Br)c1` [Compound 514, 3-amino-6-(1,3-benzodioxol-5-yl)-N-(2-bromo-4-methyl-phenyl)thieno[2,3-b] pyridine-2-carboxamide], the EC50 (in the assay with DENV-1; with DENV-4; with DENV-3; in assay [1] (setting [2])) was under 5 µM in each case.
For the compound `COc1cccc(-c2ccc3c(N)c(C(=O)Nc4ccccc4Oc4ccccc4)sc3n2)c1` [Compound 522, 3-amino-6-(3-methoxyphenyl)-N-(2-phenoxyphenyl)thieno[2,3-b]pyridine-2-carboxamide], the EC50 (in the assay with DENV-1; with DENV-4; with DENV-3; in assay [1] (setting [2])) was under 5 µM throughout.
Turning to `Cc1ccc(NC(=O)c2sc3nc(-c4ccc5c(c4)OCO5)ccc3c2N)cc1Cl` [Compound 529, 3-amino-6-(1,3-benzodioxol-5-yl)-N-(3-chloro-4-methyl-phenyl)thieno[2,3-b] pyridine-2-carboxamide], the EC50 (in the assay on DENV-1; with DENV-4; in the assay on DENV-3; in assay [1] (setting [2])) was under 5 µM in each case.
As to `COc1ccc(-c2ccc3c(N)c(C(=O)Nc4ccc(C)cc4C)sc3n2)cc1OC` [Compound 530, 3-amino-6-(3,4-dimethoxyphenyl)-N-(2,4-dimethylphenyl)thieno[2,3-b]pyridine-2-carboxamide], the EC50 (in the assay with DENV-1; in the assay on DENV-4; in the assay with DENV-3; in assay [1] (setting [2])) was under 5 µM in each case.
Regarding `COc1ccc(Cl)cc1NC(=O)c1sc2nc(-c3ccc(OC)c(OC)c3)ccc2c1N` [Compound 532, 3-amino-N-(5-chloro-2-methoxy-phenyl)-6-(3,4-dimethoxyphenyl)thieno[2,3-b] pyridine-2-carboxamide], the EC50 (with DENV-1; in the assay with DENV-4; in the assay on DENV-3; in assay [1] (setting [2])) was under 5 µM throughout.
On to `COc1ccc(-c2ccc3c(N)c(C(=O)Nc4ccc(C)c(F)c4)sc3n2)cc1OC` [Compound 533, 3-amino-6-(3,4-dimethoxyphenyl)-N-(3-fluoro-4-methyl-phenyl)thieno[2,3-b] pyridine-2-carboxamide], for which the EC50 (in the assay on DENV-1; in the assay on DENV-4; in the assay on DENV-3; in assay [1] (setting [2])) was under 5 µM in each case.
In the case of `COc1ccc(-c2ccc3c(N)c(C(=O)Nc4ccc(Cl)cc4F)sc3n2)cc1OC` [Compound 534, 3-amino-N-(4-chloro-2-fluoro-phenyl)-6-(3,4-dimethoxyphenyl)thieno[2,3-b] pyridine-2-carboxamide], the EC50 (in the assay with DENV-1; in the assay with DENV-4; in the assay with DENV-3; in assay [1] (setting [2])) was under 5 µM throughout.
`COc1ccc(NC(=O)c2sc3nc(-c4ccc(F)cc4)ccc3c2N)cc1` [Compound 535, 3-amino-6-(4-fluorophenyl)-N-(4-methoxyphenyl)thieno[2,3-b]pyridine-2-carboxamide]: the EC50 (in the assay with DENV-1; in the assay on DENV-4; in the assay with DENV-3; in assay [1] (setting [2])) was under 5 µM each time.
Take `C=CCSc1ccc(NC(=O)c2sc3nc(-c4cccc(OC)c4)ccc3c2N)cc1` [Compound 542, N-(4-allylsulfanylphenyl)-3-amino-6-(3-methoxyphenyl)thieno[2,3-b]pyridine-2-carboxamide]: the EC50 (in the assay on DENV-1; in the assay on DENV-4; with DENV-3; in assay [1] (setting [2])) was under 5 µM throughout.
As for `COc1cccc(-c2ccc3c(N)c(C(=O)Nc4cccc(Cl)c4C)sc3n2)c1` [Compound 543, 3-amino-N-(3-chloro-2-methyl-phenyl)-6-(3-methoxyphenyl)thieno[2,3-b] pyridine-2-carboxamide], the EC50 (in the assay on DENV-1; in the assay on DENV-4; in the assay on DENV-3; in assay [1] (setting [2])) was under 5 µM in each case.
`COc1cccc(-c2ccc3c(N)c(C(=O)Nc4ccc(C)c(C)c4)sc3n2)c1` [Compound 546, 3-amino-N-(3,4-dimethylphenyl)-6-(3-methoxyphenyl)thieno[2,3-b]pyridine-2-carboxamide]: the EC50 (in the assay on DENV-1; with DENV-4; in the assay on DENV-3; in assay [1] (setting [2])) was under 5 µM each time.
Regarding `COc1cccc(-c2ccc3c(N)c(C(=O)Nc4cccc(C)c4)sc3n2)c1` [Compound 547, 3-amino-6-(3-mehtoxyphenyl)-N-(m-tolyl)thieno[2,3-b]pyridine-2-carboxamide], the EC50 (in the assay on DENV-1; in the assay with DENV-4; with DENV-3; in assay [1] (setting [2])) was under 5 µM in each case.
For `COc1cccc(-c2ccc3c(N)c(C(=O)Nc4ccc(Br)c(C)c4)sc3n2)c1` [Compound 550, 3-amino-N-(4-bromo-3-methyl-phenyl)-6-(3-methoxyphenyl)thieno[2,3-b] pyridine-2-carboxamide], the EC50 (in the assay with DENV-1; in the assay with DENV-4; in the assay on DENV-3; in assay [1] (setting [2])) was under 5 µM throughout.
Consider `CCC(C)c1ccc(NC(=O)c2sc3nc(-c4cccc(OC)c4)ccc3c2N)cc1` (stereo not drawn) [Compound 555, 3-amino-6-(3-methoxyphenyl)-N-(4-sec-butylphenyl)thieno[2,3-b]pyridine-2-carboxamide], for which the EC50 (in the assay on DENV-1; in the assay on DENV-4; with DENV-3; in assay [1] (setting [2])) was under 5 µM throughout.
For the compound `COc1cccc(-c2ccc3c(N)c(C(=O)Nc4cccc(Cl)c4)sc3n2)c1` [Compound 561, 3-amino-N-(3-chlorophenyl)-6-(3-methoxyphenyl)thieno[2,3-b]pyridine-2-carboxamide], the EC50 (in the assay on DENV-1; with DENV-4; in the assay with DENV-3; in assay [1] (setting [2])) was under 5 µM in each case.
Turning to `COc1cccc(-c2ccc3c(N)c(C(=O)Nc4ccc(SC)cc4)sc3n2)c1` [Compound 566, 3-amino-6-(3-methoxyphenyl)-N-(4-methylsulfanylphenyl)thieno[2,3-b] pyridine-2-carboxamide], the EC50 (in the assay with DENV-1; in the assay on DENV-4; with DENV-3; in assay [1] (setting [2])) was under 5 µM in each case.
Regarding `C=CCSc1nc2ccc(NC(=O)c3sc4nc(-c5cccc(OC)c5)ccc4c3N)cc2s1` [Compound 569, N-(2-allylsulfanyl-1,3-benzothiazol-6-yl)-3-amino-6-(3-methoxyphenyl)thieno [2,3-b]pyridine-2-carboxamide], the EC50 is under 5 µM in the assay with DENV-1, under 5 µM with DENV-4, 5 to 25 µM in the assay on DENV-3 and under 5 µM in assay [1] (setting [2]).
On to `CCCCSc1nc2ccc(NC(=O)c3sc4nc(-c5cccc(OC)c5)ccc4c3N)cc2s1` [Compound 570, 3-amino-N-(2-butylsulfanyl-1,3-benzo-thiazol-6-yl)-6-(3-methoxyphenyl)thieno [2,3-b]pyridine-2-carboxamide], for which the EC50 (in the assay on DENV-1; in the assay with DENV-4; in the assay with DENV-3; in assay [1] (setting [2])) was under 5 µM throughout.
For the compound `COc1cccc(-c2ccc3c(N)c(C(=O)Nc4ccccc4SCC(C)C)sc3n2)c1` [Compound 571, 3-amino-N-(2-isobutylsulfanylphenyl)-6-(3-methoxyphenyl)thieno[2,3-b] pyridine-2-carboxamide], the EC50 (in the assay with DENV-1; in the assay on DENV-4; in the assay on DENV-3; in assay [1] (setting [2])) was under 5 µM throughout.
As for `CCCCSc1ccccc1NC(=O)c1sc2nc(-c3cccc(OC)c3)ccc2c1N` [Compound 572, 3-amino-N-(2-butylsulfanylphenyl)-6-(3-methoxyphenyl)thieno[2,3-b]pyridine-2-carboxamide], the EC50 (in the assay on DENV-1; in the assay with DENV-4; with DENV-3; in assay [1] (setting [2])) was under 5 µM each time.
Turning to `COc1ccc(-c2ccc3c(N)c(C(=O)Nc4ccc(C)c(Cl)c4)sc3n2)cc1OC` [Compound 574, 3-amino-N-(3-chloro-4-mehtyl-phenyl)-6-(3,4-dimethoxyphenyl)thieno[2,3-b] pyridine-2-carboxamide], the EC50 (in the assay with DENV-1; with DENV-4; in the assay on DENV-3; in assay [1] (setting [2])) was under 5 µM in each case.

By EC50 is commonly meant the concentration needed to bring the measured effect to its halfway point.
